{
  "source": "paper PMC8872768",
  "about": "“Discovery of ultrafast myosin, its amino acid sequence, and structural features” (Proceedings of the National Academy of Sciences of the …, 2022)",
  "key": {"[1]": {"target": "T1, CbXI-3 MD (Chara braunii, UniProt A0A388L5N7)", "T1 construct": "gene CBR_g24025; motor domain only, no IQ motifs; baculovirus / insect cells", "T1 sequence (A0A388L5N7 1-740 limits assumed)": "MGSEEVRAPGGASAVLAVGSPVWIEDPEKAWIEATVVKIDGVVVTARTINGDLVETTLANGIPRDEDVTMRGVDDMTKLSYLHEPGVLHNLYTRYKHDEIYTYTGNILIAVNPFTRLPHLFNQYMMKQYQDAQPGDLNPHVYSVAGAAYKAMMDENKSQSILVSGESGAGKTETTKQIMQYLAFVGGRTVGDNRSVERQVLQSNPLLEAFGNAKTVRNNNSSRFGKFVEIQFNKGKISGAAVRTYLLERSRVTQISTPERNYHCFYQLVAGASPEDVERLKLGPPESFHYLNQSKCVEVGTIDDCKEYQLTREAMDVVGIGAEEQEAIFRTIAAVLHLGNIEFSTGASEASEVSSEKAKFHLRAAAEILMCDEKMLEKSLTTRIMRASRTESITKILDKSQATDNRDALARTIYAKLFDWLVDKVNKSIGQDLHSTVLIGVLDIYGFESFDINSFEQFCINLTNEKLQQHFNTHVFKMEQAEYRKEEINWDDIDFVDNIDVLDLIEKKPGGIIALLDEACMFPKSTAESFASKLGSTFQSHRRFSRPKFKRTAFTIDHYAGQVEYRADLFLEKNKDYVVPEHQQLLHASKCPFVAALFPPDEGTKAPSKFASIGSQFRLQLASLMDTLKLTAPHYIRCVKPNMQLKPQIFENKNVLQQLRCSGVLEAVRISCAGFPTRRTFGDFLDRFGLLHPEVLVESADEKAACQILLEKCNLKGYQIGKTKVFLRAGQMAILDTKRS", "experiment": "actin-activated Mg2+-ATPase, phosphate release", "assay_type": "biochemical", "conditions": "2 mM ATP, F-actin 0.125-4 mg/mL, 25 mM KCl, 4 mM MgCl2, pH 7.4, 25 C"}, "[2]": {"target": "T2, CbXI-2 MD (Chara braunii, UniProt A0A388M2Q8)", "T2 construct": "gene CBR_g48390; motor domain only, no IQ motifs; baculovirus / insect cells", "T2 sequence (A0A388M2Q8 1-744 limits assumed)": "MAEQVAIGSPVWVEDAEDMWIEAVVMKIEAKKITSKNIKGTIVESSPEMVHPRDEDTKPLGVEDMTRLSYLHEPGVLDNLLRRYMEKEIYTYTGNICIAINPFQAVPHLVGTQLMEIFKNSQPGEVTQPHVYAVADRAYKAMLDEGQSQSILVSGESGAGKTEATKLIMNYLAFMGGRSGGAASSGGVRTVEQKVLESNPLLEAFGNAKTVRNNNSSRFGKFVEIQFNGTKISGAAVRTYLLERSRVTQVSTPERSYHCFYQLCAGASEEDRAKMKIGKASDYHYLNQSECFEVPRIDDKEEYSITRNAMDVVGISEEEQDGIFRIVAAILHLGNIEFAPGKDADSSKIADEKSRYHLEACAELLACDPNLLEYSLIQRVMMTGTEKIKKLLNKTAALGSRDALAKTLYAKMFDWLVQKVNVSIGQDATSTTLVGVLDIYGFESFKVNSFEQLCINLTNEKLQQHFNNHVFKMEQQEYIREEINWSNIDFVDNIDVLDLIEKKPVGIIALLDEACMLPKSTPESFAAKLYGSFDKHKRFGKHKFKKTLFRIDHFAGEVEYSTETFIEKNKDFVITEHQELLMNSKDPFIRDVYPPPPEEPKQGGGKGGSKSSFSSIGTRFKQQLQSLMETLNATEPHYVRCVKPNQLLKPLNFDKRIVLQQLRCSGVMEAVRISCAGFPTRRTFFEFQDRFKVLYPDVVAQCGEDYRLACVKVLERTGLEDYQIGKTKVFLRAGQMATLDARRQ", "experiment": "actin-activated Mg2+-ATPase, phosphate release", "assay_type": "biochemical", "conditions": "2 mM ATP, F-actin 0.125-4 mg/mL, 25 mM KCl, 4 mM MgCl2, pH 7.4, 25 C"}},
  "data": [
    {"smiles": "Nc1ncnc2c1ncn2[C@@H]1O[C@H](COP(=O)(O)OP(=O)(O)OP(=O)(O)O)[C@@H](O)[C@H]1O", "note": "[ATP]", "values": [
      {"measurement": "actin-activated Mg2+-ATPase, phosphate release", "setting": "[1]", "result": "The ATPase activities of CbXI-1, CbXI-2, CbXI-3, and CbXI-4 MDs were plotted"},
      {"measurement": "actin-activated Mg2+-ATPase, phosphate release", "setting": "[2]", "result": "The ATPase activities of CbXI-1, CbXI-2, CbXI-3, and CbXI-4 MDs were plotted"}
    ]}
  ]
}
